Reference: patent EP3613735A1, “NOVEL SIRT 1 ACTIVATOR AND MEDICINAL USE THEREOF” (Pusan National University Industry - University Cooperation …, priority 2017, dated 2018)

How the values were obtained:
Assay type in all cases: cell-based
PPARβ/δ [1] = biological target: T1, PPARβ/δ (Homo sapiens, UniProt Q03181); assay: PPAR response element (PPRE)-luciferase assay in fibroblasts; details: fibroblasts overexpressing PPARβ/δ; compared with GW501516
T1 construct: endogenous in cells
T1 sequence (Q03181 1-441): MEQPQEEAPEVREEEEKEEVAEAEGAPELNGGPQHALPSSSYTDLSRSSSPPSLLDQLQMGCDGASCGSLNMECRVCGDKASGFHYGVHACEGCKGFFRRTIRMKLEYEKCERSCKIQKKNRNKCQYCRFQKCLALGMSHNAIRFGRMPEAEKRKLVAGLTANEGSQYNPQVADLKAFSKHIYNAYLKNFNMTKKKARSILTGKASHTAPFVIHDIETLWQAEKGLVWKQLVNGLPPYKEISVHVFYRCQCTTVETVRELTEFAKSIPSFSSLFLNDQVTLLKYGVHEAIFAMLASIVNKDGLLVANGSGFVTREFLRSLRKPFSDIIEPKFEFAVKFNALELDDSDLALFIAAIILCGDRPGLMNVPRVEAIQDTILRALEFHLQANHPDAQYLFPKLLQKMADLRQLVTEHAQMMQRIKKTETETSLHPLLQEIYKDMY
Procedure: Next, to analyze the effect of PPARβ/δ activity of Compound 69c, a PPAR response element (PPRE)-luciferase assay was performed on fibroblasts, which are the main cells of the skin epithelial layer. A binding site region of PPARβ/δ, i.e. plasmids in which the PPRE region was bound upstream of the luciferase gene were transfected by treating the cells with lipofectamine. Through this process, DNA is surrounded by lipofectamine, making it easier to pass the cell membrane. In addition, it is possible to identify which of the PPAR subtypes is effective by overexpressing PPARβ/δ in addition to the endogenous PPAR subtype. 18 to 24 hours after transduction, at least 5 hours after treatment with the candidate compound, fluorescence was measured by addition of the substrate of the luciferase assay system. Luciferase expression amount can be analyzed by the fluorescence value, and the activity level of PPARβ/δ can be analyzed through the above results.

skin fibroblasts = assay: β-galactosidase staining of UVB-induced cell aging; details: UVB of 10 mJ/cm^2; pretreated at 10 µM for 24 hours
Procedure: β-galactosidase is used to induce cellular aging of fibroblasts, which are the main cells of the epidermal layer of skin, by using UVB, the most important environmental factor in skin aging, as the most common marker for cell aging and β-galactosidase staining was performed to analyze the cell aging protection of Compound 32u. […]

pro-collagen = assay: Pro-collagen expression in UVB photoaging of skin fibroblasts, Western blotting; details: skin fibroblasts pretreated with 10 µM one hour before 8 mJ/cm^2 UVB; after 6 hours
Procedure: First, the effect of Compound 69c on pro-collagen expression by cell photoaging was analyzed. A collagen reduction model by UVB was constructed using skin fibroblasts to perform the experiments. Skin fibroblasts were pretreated with 10 µM Compound 69c one hour ago and irradiated with 8 mJ/cm^2 of UVB. After 6 hours, the cells were lysed and the expression of pro-collagen was confirmed via Western blotting.

[2] = test system: reactive oxygen species (ROS); assay: Reactive oxygen species with DCF-DA fluorescent dye
MMP13 = MMP13 expression in UVB photoaging of skin fibroblasts, Western blotting; details: skin fibroblasts pretreated with 10 µM 1 hour before 8 mJ/cm^2 UVB; after 6 hours
Procedure: (§1) Based on this, in order to confirm the effect of Compound 69c on the expression level of intracellular MMPs, 10 µM of Compound 69c was pretreated 1 hour prior to skin fibroblasts and irradiated with UVB of 8 mJ/cm^2. After 6 hours, cells were lysed and the expression levels of MMP1 and MMP13 were confirmed by Western blotting.

MMP1 = MMP1 expression in UVB photoaging of skin fibroblasts, Western blotting; details: skin fibroblasts pretreated with 10 µM 1 hour before 8 mJ/cm^2 UVB; after 6 hours
Procedure: as §1

PPARβ/δ [3] = biological target: T1, PPARβ/δ; assay: PPARβ/δ transfer into the nucleus, western blot; details: 1 hour and 30 minutes after treating cells
p53 = assay: Acetylation of p53 increased by UVB
Source text: Furthermore, SIRT 1 is known to exert its function through deacetylation of various substrate proteins.

SIRT 1 = SIRT 1 expression, real-time PCR and western blot
Procedure: To confirm whether Compound 69c increases the expression of SIRT 1 through the activation of PPARβ/δ, real-time PCR and western blot were performed.

## CN1CCN(Cc2ccc3oc(-c4ccccc4NC(=O)c4ccc5ccccc5c4)nc3c2)CC1 [Compound 69c, N-(2-(5-((4-Methylpiperazin-1-yl)methyl)benzo[d]oxazol-2-yl)phenyl)-2-naphthamide]
PPARβ/δ [1]
  PPARβ/δ activity (PPRE-luciferase): higher PPARβ/δ activity than GW501516
Skin fibroblasts
  β-galactosidase staining: reduced
pro-collagen
  expression of pro-collagen: increased
[2]
  reactive oxygen species induced by UVB: inhibited
MMP13
  expression of MMP13: reduced
MMP1
  expression of MMP1: reduced
PPARβ/δ [3]
  PPARβ/δ transfer in the nucleus: increase in PPARβ/δ transfer in the nucleus
p53
  acetylation of p53: inhibited acetylation of p53 increased by UVB
SIRT 1; real-time PCR
  mRNA expression level of SIRT 1: increased
SIRT 1; western blot
  protein expression level of SIRT 1: increased
